# Data taken from paper PMC8179437 (Chemical Science, 2021).
# Target: T1, TDP1 (Homo sapiens, UniProt Q9NUW8)
# Assay: TDP1 gel-based in vitro assay
# Assay type: biochemical
# Settings: Table 1 and main text
# T1 sequence (Q9NUW8 whole entry): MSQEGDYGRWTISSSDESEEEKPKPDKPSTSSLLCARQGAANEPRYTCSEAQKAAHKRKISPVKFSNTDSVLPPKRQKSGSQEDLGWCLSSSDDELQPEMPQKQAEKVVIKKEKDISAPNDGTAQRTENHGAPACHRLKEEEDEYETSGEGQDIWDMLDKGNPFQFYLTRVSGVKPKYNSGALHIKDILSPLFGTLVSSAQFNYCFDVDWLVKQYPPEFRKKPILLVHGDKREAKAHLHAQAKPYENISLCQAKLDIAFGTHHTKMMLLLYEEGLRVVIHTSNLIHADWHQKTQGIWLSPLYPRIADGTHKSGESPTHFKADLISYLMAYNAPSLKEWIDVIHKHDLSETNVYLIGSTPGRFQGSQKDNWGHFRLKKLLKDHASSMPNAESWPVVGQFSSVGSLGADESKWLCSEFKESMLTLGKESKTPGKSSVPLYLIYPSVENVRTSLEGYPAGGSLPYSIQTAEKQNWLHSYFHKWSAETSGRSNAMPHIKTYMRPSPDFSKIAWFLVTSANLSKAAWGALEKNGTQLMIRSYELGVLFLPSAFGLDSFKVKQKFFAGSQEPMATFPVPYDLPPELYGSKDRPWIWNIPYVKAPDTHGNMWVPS
row,Structure (SMILES),IC50
1,"CS(=O)(=O)c1ccc2nc(-c3ccccc3)c(Nc3ccc(C(=O)O)cc3)n2c1 [Compound 8q, 4-((6-(Methylsulfonyl)-2-phenylimidazo[1,2-a]pyridin-3-yl)amino)benzoic acid]",1.8 µM
2,"c1ccc(Nc2c(-c3ccccc3)nc3ccccn23)cc1 [Compound 6t, N,2-Diphenylimidazo[1,2-a]pyridin-3-amine]",> 100 µM
3,"O=C(O)c1ccc(Nc2c(-c3ccc(O)cc3)nc3ccccn23)cc1 [Compound 8f, 4-((2-(4-Hydroxyphenyl)imidazo[1,2-a]pyridin-3-yl)amino)benzoic acid]",> 100 µM
4,"O=C(O)c1ccc(Nc2c(-c3ccc(C(=O)O)cc3)nc3ccccn23)cc1 [Compound 8h, 4-(3-((4-Carboxyphenyl)amino)imidazo[1,2-a]pyridin-2-yl)benzoic acid]",> 100 µM
5,"CS(=O)(=O)c1ccc2nc(-c3ccc(-c4ccccc4)cc3)c(Nc3ccc(C(=O)O)cc3)n2c1 [Compound 8r, 4-((2-([1,1'-Biphenyl]-4-yl)-6-(methylsulfonyl)imidazo[1,2-a]pyridin-3-yl)amino)benzoic acid]",9.95 µM

# The next lines start with the values.
row,IC50,Structure (SMILES)
1,> 100 µM,"O=C(O)c1ccc(Cn2c(-c3ccccc3)nc3ccccc32)cc1 [Compound 9a, 4-((2-Phenyl-1H-benzo[d]imidazol-1-yl)methyl)benzoic acid]"
2,> 100 µM,"O=C(O)c1ccc(Cn2c(-c3ccccc3)cc3ccccc32)cc1 [Compound 9b, 4-((2-Phenyl-1H-indol-1-yl)methyl)benzoic acid]"

# Target: T1, TDP1
# Assay: TDP1 Lineweaver–Burk analysis
# Assay type: biochemical
# Settings: not given
row,Structure (SMILES),mode of inhibition
1,"O=C(O)c1ccc(Nc2c(-c3ccccc3)nc3cnccn23)cc1 [Compound 7b, 4-((2-Phenylimidazo[1,2-a]pyrazin-3-yl)amino)benzoic acid]",competitive
2,"O=C(O)c1ccc(Nc2c(-c3ccccc3)nc3ccccn23)cc1 [Compound 8a, 4-((2-Phenylimidazo[1,2-a]pyridin-3-yl)amino)benzoic acid]",competitive

# Continued, values first:
row,mode of inhibition,Structure (SMILES)
1,competitive,"O=C(O)c1ccc(Nc2c(-c3ccccc3)nc3ccccn23)cc1C(=O)O [Compound 10b, 4-((2-Phenylimidazo[1,2-a]pyridin-3-yl)amino)phthalic acid]"
2,competitive,"O=C(O)c1ccc(Nc2c(-c3ccccc3)nc3cnccn23)cc1C(=O)O [Compound 10a, 4-((2-Phenylimidazo[1,2-a]pyrazin-3-yl)amino)phthalic acid]"
